Experimental data published in PMC10795196, “Self-Assembled Materials Based on Fully Aromatic Peptides: The Impact of Tryptophan, Tyrosine, and Dopa Residues” (Langmuir, 2024).
Converted amounts (≈) assume the structure as drawn. Non-standard residues stand in square brackets, D forms with d. Residues, ends and D or L forms follow the SMILES beside them. No end group written: not given here. Dopa = N[C@@H](Cc1ccc(O)c(O)c1)C(=O)O; AEEA = NCCOCCOCC(=O)O

Experiment: Water solubility determined spectroscopically (absorbance at 280 nm)
Assay type: physicochemical
Details: direct dissolution of powder in bidistilled water, centrifuged solutions, UV absorbance at 280 nm with calculated ε
Protocol: Peptide solutions were prepared by direct dissolution of pure powders in bidistilled water. The analytical concentration of solutions was spectroscopically determined by absorbance on a UV–vis Thermo Fisher Scientific Inc. (Wilmington, Delaware, USA) Nanodrop 2000c spectrophotometer equipped with a 1.0 cm quartz cuvette (Hellma) using the molar absorptivity (ε) at 280 nm reported in Table 1. For each peptide, the ε was calculated using the formula ε(280)= [x·5500 + y·1215 + k·2630] [L·cm^–1·mol^–1], where x, y, and k were the numbers of W, Y, and Dopa residues, respectively. […] Hydrogel formation was triggered using the “solvent switch” method, which consists of the addition of water to a peptide stock solution (100 mg/mL in DMSO). The peptide concentration after water addition was 1.0 wt % (10.0 mg/mL).
To deeply investigate the molecular determinant that can positively or negatively affect the aggregation process, herein, we evaluated the impact generated by replacement of the Phe residue with the Trp (W) one. Trp was selected to assess the effect of a more sterically hindered residue containing the heteroaromatic indole group. On the other side, Tyr residues were replaced by Dopa, characterized by the catechol group in place of the phenol one. Using this design, two novel peptides [(WY)3 and (W-Dopa)3] and their N-PEGylated analogues [PEG8-(WY)3 and PEG8-(W-Dopa)3] were designed (Figure 1). The novel sequences were synthesized using a solid-phase approach, according to the Fmoc/tBu protocols on Rink amide MBHA resin. This support allows for obtaining amidation of the C-terminus. Due to the major steric hindrance of the Trp residue, the synthesis of these primary sequences was more difficult than the previously reported ones and required the employment of a DMF/NMP mixture as solvent. After purification, peptides were lyophilized and their identity was assessed by LC-MS (Figures S1–S4 and Table 1). The estimation of the peptide solubility was spectroscopically determined by recording the absorbance spectra (Figure S5) on the centrifuged peptide solutions. […] As expected, peptides derivatized with the PEG moiety are more soluble than their corresponding unPEGylated versions, thus confirming PEGylation as a helpful strategy to improve intrinsic water solubility of all-aromatic sequences.

Row | solubility thermodynamic | Compound
1 | 7610 µg/mL (≈ 6.84 mM) | NC(=O)[C@H](Cc1ccc(O)c(O)c1)NC(=O)[C@H](Cc1c[nH]c2ccccc12)NC(=O)[C@H](Cc1ccc(O)c(O)c1)NC(=O)[C@H](Cc1c[nH]c2ccccc12)NC(=O)[C@H](Cc1ccc(O)c(O)c1)NC(=O)[C@@H](N)Cc1c[nH]c2ccccc12 [(W-Dopa)3] (H-W[Dopa]W[Dopa]W[Dopa]-NH2)
2 | 15000 µg/mL (≈ 8.86 mM) | NCCOCCOCC(=O)NCCOCCOCC(=O)NCCOCCOCC(=O)NCCOCCOCC(=O)N[C@@H](Cc1c[nH]c2ccccc12)C(=O)N[C@@H](Cc1ccc(O)c(O)c1)C(=O)N[C@@H](Cc1c[nH]c2ccccc12)C(=O)N[C@@H](Cc1ccc(O)c(O)c1)C(=O)N[C@@H](Cc1c[nH]c2ccccc12)C(=O)N[C@@H](Cc1ccc(O)c(O)c1)C(N)=O [PEG8-(W-Dopa)3] (H-[AEEA][AEEA][AEEA][AEEA]W[Dopa]W[Dopa]W[Dopa]-NH2)
3 | 3770 µg/mL (≈ 2.29 mM) | NCCOCCOCC(=O)NCCOCCOCC(=O)NCCOCCOCC(=O)NCCOCCOCC(=O)N[C@@H](Cc1c[nH]c2ccccc12)C(=O)N[C@@H](Cc1ccc(O)cc1)C(=O)N[C@@H](Cc1c[nH]c2ccccc12)C(=O)N[C@@H](Cc1ccc(O)cc1)C(=O)N[C@@H](Cc1c[nH]c2ccccc12)C(=O)N[C@@H](Cc1ccc(O)cc1)C(N)=O [PEG8-(WY)3] (H-[AEEA][AEEA][AEEA][AEEA]WYWYWY-NH2)
4 | 1150 µg/mL | WYWYWY-NH2 [(WY)3]
